Measured values published in patent US11603349B2, “Anti-fibrotic compounds” (Certa Therapeutics Pty Ltd, priority 2017, dated 2023).
Structures can show the parent of a compound that is named as a salt.

How the values were obtained:
in vitro = settings: rat, CC50 (μM)
[1] = tested on: TGF-β induced [14C]-proline incorporation in rat mesangial cells; test: [14C]-proline incorporation assay (collagen biosynthesis); assay type: cell-based; settings: Rattus norvegicus, Mesangial cell, 44 h, inhibition of TGF-β1 (1 ng/ml) induced [14C]-proline incorporation, IRMC cells
[2] = MTS tetrazolium reduction cell viability assay; settings: rat, rat mesangial cells (1097/IRMC cells), TGF-β1 stimulated, CC50 (μM), vs 1% DMSO vehicle
[3] = Discrete oral pharmacokinetic studies in male Sprague Dawley rats; assay type: in vivo, rat; settings: male SD rats; for change in plasma concentrations between the 75 and 350 mg/kg/day dosing groups: after the initial dose; for adverse compound related effects: 2 and 20 mg/kg single dose, 75 and 350 mg/kg daily (5 days)
Method: Discrete oral pharmacokinetic studies were performed for example compounds 116, 107, and 102.
116: 2 mg/kg and 20 mg/kg of 116 were administered as single doses to male Sprague Dawley (SD) rats. 75 mg/kg and 350 mg/kg of 116 were administered daily (5 days) to male Sprague Dawley (SD) rats.
107: 2 mg/kg and 20 mg/kg of 107 were administered as single doses to male Sprague Dawley (SD) rats. 75 mg/kg and 350 mg/kg of 107 were administered daily (5 days) to male Sprague Dawley (SD) rats.
102: 2 mg/kg and 20 mg/kg of 102 were administered as single doses to male Sprague Dawley (SD) rats. 75 mg/kg and 350 mg/kg of 102 were administered daily (5 days) to male Sprague Dawley (SD) rats. […] An increase in plasma concentrations were observed between the 75 and 350 mg/kg/day dosing groups.

[4] = tested on: rat mesangial cells (1097/IRMC cells); test: MTS tetrazolium reduction cell viability assay; settings: TGF-β1 stimulated IRMC cells, vs 1% DMSO vehicle
[5] = daily, throughout the 5-day study

Structure (SMILES)	CC50 at 48 h (in vitro) [µM]	IC50 [1] [µM]	further results
COc1cc(/C=C/C(=O)Nc2ccccc2C(=O)O)ccc1C1=CCNCC1 [Example 98, (E)-2-(3-(3-methoxy-4-(1,2,3,6-tetrahydropyridin-4-yl)phenyl)acrylamido)benzoic Acid]	289	13.5	
COc1cc(/C=C/C(=O)Nc2ccccc2C(=O)O)ccc1C1=CCN(C)CC1 [Example 99, (E)-2-(3-(3-methoxy-4-(1-methyl-1,2,3,6-tetrahydropyridin-4-yl)phenyl)acrylamido)benzoic Acid]	> 300	34.7	
COc1cc(/C=C/C(=O)Nc2ccccc2C(=O)O)ccc1CC1CC1 [Example 102, 2-[[(E)-3-[4-(cyclopropylmethyl)-3-methoxyphenyl]prop-2-enoyl]amino]benzoic Acid]		3.87	CC50 at 48 h [2]: 11.4 µM; coverage of IC50 relative to a 200 mg/kg/day regime of FT011 ([3]; 20 mg/kg): superior; coverage of IC50 relative to a 200 mg/kg/day regime of FT011 ([3]; 75 mg/kg): superior; coverage of IC50 relative to a 200 mg/kg/day regime of FT011 ([3]; 350 mg/kg): superior; change in plasma concentrations between the 75 and 350 mg/kg/day dosing groups [3]: An increase; trough concentrations, 75 and 350 mg/kg/day dosing group [3, 5]: consistent with dosing amounts
COc1ccc(/C=C/C(=O)Nc2ccccc2C(=O)O)cc1C1=CCN(C)CC1 [Example 104, (E)-2-(3-(4-methoxy-3-(1-methyl-1,2,3,6-tetrahydropyridin-4-yl)phenyl)acrylamido)benzoic acid trifluoroacetic acid salt]	281	41.4	
CN1CCOc2ccc(/C=C/C(=O)Nc3ccccc3C(=O)O)cc21 [Example 107, 2-[[(E)-3-(4-methyl-2,3-dihydro-1,4-benzoxazin-6-yl)prop-2-enoyl]amino]benzoic Acid]		14.9	CC50 at 48 h [2]: > 100 µM; coverage of IC50 relative to a 200 mg/kg/day regime of FT011 ([3]; 350 mg/kg): superior; adverse compound related effects [3]: No adverse compound related effects were observed; change in plasma concentrations between the 75 and 350 mg/kg/day dosing groups [3]: an increase; trough concentrations, 75 and 350 mg/kg/day dosing group [3, 5]: consistent with dosing amounts
COc1ccc(/C=C/C(=O)Nc2ccccc2C(=O)O)c(OCCN(C)C)c1OC [Example 116, (E)-2-(3-(2-(2-(dimethylamino)ethoxy)-3,4-dimethoxyphenyl)acrylamido)benzoic Acid]			CC50 [4]: > 300 µM; CC50 at 48 h [2]: 294 µM; coverage of IC50 relative to a 200 mg/kg/day regime of FT011 ([3]; 75 mg/kg): superior; coverage of IC50 relative to a 200 mg/kg/day regime of FT011 ([3]; 350 mg/kg): superior; adverse compound related effects [3]: No adverse compound related effects were observed; change in plasma concentrations between the 75 and 350 mg/kg/day dosing groups [3]: little to no increase; trough concentrations, 350 mg/kg/day dosing group [3, 5]: lower than expected
COc1cc(/C=C/C(=O)Nc2ccc(F)cc2)ccc1C1=CCNCC1 [Example 120, (E)-N-(4-fluorophenyl)-3-(3-methoxy-4-(1,2,3,6-tetrahydropyridin-4-yl)phenyl)acrylamide]	10.8	3.22	
COc1cc(C2CC2C(=O)Nc2ccc(C#N)cc2)ccc1C1=CCNCC1 (stereo not shown) [Example 121, N-(4-cyanophenyl)-2-(3-methoxy-4-(1,2,3,6-tetrahydropyridin-4-yl)phenyl)cyclopropane Carboxamide]	8.47	3.79	
COc1cc(/C=C/C(=O)Nc2ccc(C#N)cc2)ccc1C1=CCNCC1 [Example 139, (E)-N-(4-cyanophenyl)-3-(3-methoxy-4-(1,2,3,6-tetrahydropyridin-4-yl)phenyl)acrylamide trifluoroacetic acid salt]	9.03	5.36	
COc1cc(/C=C/C(=O)Nc2ccccc2-n2cnc(C)n2)ccc1C1=CCNCC1 [Example 140, (E)-3-(3-methoxy-4-(1,2,3,6-tetrahydropyridin-4-yl)phenyl)-N-(2-(3-methyl-1H-1,2,4-triazol-l-yl)phenyl)acrylamide trifluoroacetic acid salt]	36.1	8.47	
COc1cc(/C=C/C(=O)Nc2ccccc2F)ccc1C1=CCNCC1 [Example 141, (E)-N-(2-fluorophenyl)-3-(3-methoxy-4-(1,2,3,6-tetrahydropyridin-4-yl)phenyl)acrylamide]	13.5	4.85	
COc1cc(/C=C/C(=O)n2nc(O)c3ccccc32)ccc1C1=CCNCC1 [Example 142, (E)-1-(3-hydroxy-1H-indazol-1-yl)-3-(3-methoxy-4-(1,2,3,6-tetrahydropyridin-4-yl)phenyl)prop-2-en-1-one]	> 300	31.7	
COc1cc(C2CC2C(=O)Nc2ccc(F)cc2)ccc1C1=CCNCC1 (stereo not shown) [Example 143, N-(4-fluorophenyl)-2-(3-methoxy-4-(1,2,3,6-tetrahydropyridin-4-yl)phenyl)cyclopropane carboxamide trifluoroacetic acid salt]	7.2	2.81	
COc1cc(C2CC2C(=O)Nc2ccccc2-n2cnc(C)n2)ccc1C1=CCNCC1 (stereo not shown) [Example 144, 2-(3-methoxy-4-(1,2,3,6-tetrahydropyridin-4-yl)phenyl)-N-(2-(3-methyl-1H-1,2,4-triazol-1-yl)phenyl)cyclopropanecarboxamide trifluoroacetic acid salt]	81	20.9	
COc1cc(C2CC2C(=O)Nc2ccccc2F)ccc1C1=CCNCC1 (stereo not shown) [Example 145, N-(2-fluorophenyl)-2-(3-methoxy-4-(1,2,3,6-tetrahydropyridin-4-yl)phenyl)cyclopropane carboxamide trifluoroacetic acid]	11.7	3.71	
COc1cc(C2CC2C(=O)n2nc(O)c3ccccc32)ccc1C1=CCNCC1 (stereo not shown) [Example 146, (3-hydroxy-1H-indazol-1-yl)(2-(3-methoxy-4-(1,2,3,6-tetrahydropyridin-4-yl)phenyl)cyclopropyl)methanone trifluoroacetic acid salt]	> 300	19.6	
